Test results published in patent US4089965A, “Thiazolylphenylguanidines as antirhinovirus agents” (American Cyanamid Company, priority 1977, dated 1978).
In brackets after ≈: the same amount, converted by molar mass.

Columns and labels:
Rhinovirus Serotype 1B = assay: Plaque assay, minimal inhibitory concentration; assay type: cell-based; settings: Enterovirus, inhibiting virus plaque formation by 50%
Rhinovirus Serotype 3 = assay: Plaque assay, minimal inhibitory concentration; assay type: cell-based; settings: Enterovirus; HeLa Cells; inhibiting virus plaque formation by 50%
Rhinovirus Serotype 12 = assay: Plaque assay, minimal inhibitory concentration; assay type: cell-based; settings: Enterovirus; HeLa Cells; inhibiting virus plaque formation by 50%
Coxsackievirus A-21 = assay: Plaque assay, minimal inhibitory concentration; assay type: cell-based; settings: HeLa Cells, inhibiting virus plaque formation by 50%
rhinovirus 32 = assay type: in vivo, human; settings: neutralization test, rhinovirus type 32

Compound: N=C(Nc1ccccc1)Nc1nc(-c2ccccc2)cs1 [1-(4-phenyl-2-thiazolyl)-3-phenylguanidine]
- IC50 (Rhinovirus Serotype 1B; L132, L-132 Cells): 0.8 µg/mL (≈ 2.72 µM)
- IC50 (Rhinovirus Serotype 1B; HeLa Cells): 0.8 to 1.6 µg/mL (≈ 2.72 to 5.44 µM)
- IC50 (Rhinovirus Serotype 3): 0.4 to 0.8 µg/mL (≈ 1.36 to 2.72 µM)
- IC50 (Rhinovirus Serotype 12): 0.2 to 0.4 µg/mL (≈ 0.679 to 1.36 µM)
- IC50 (Coxsackievirus A-21): 1.6 to 3.1 µg/mL (≈ 5.44 to 10.5 µM)
- antibody response of the treated subject who became clinically infected (rhinovirus 32): no antibody response
